Test results reported in PMC5974779, “Prediction of Drug-Induced Hepatotoxicity Using Long-Term Stable Primary Hepatic 3D Spheroid Cultures in Chemically Defined Conditions” (Toxicological Sciences, 2018).
Read-outs that look alike come from different tables or passages of the source.

Legend:
[1] = cited from earlier work
[2] = tested on: primary human hepatocytes (PHH) 3D spheroids
[3] = ref DrugBank and Prescribers' Digital Reference database; cited from earlier work
clinical DILI in man = conditions: cited from earlier work
PHH 2D sandwich cultures = conditions: PHH 2D sandwich cultures, 100x Cmax; ref Xu 2008; cited from earlier work
[4] = therapeutic total cmax, ref PMID
[5] = DILI classification score, ref Suzuki et al. (2010)
[6] = FDA drug labeling DILI concern, ref Chen et al., 2011
[7] = FDA drug labeling DILI score, ref Chen et al., 2011
[8] = clinical DILI classification in man (POS/NEG)
[9] = clinical DILI classification used in this study, Supplementary Table 2, ref Chen et al., 2011, Guo et al., 2005, O'Brien et al., 2006, Sakatis et al., 2012, Suzuki et al., 2010, Xu et al., 2008
[10] = clinical DILI classification, Supplementary Table 1, ref Chen et al., 2011, Guo et al., 2005, O'Brien et al., 2006, Sakatis et al., 2012, Suzuki et al., 2010, Xu et al., 2008
[11] = reported pattern of liver damage, Supplementary Table 2, ref literature
[12] = clinical DILI classification, ref Xu et al. (2008)
[13] = clinical hepatotoxicity classification, ref O'Brien et al. (2003)

| Compound | Cmax [1, 4] [nM] | Chemically defined spheroids (this study) 20x [2] | Extent of hepatic metabolism [3] | FDA (0-8) (clinical DILI in man; [7]) | DILI in vivo (clinical DILI in man; [8]) | Classified as (clinical DILI in man; [9]) | DILI in vivo (clinical DILI in man; [10]) | Type of DILI (clinical DILI in man; [11]) | 2Dsw (Xu 2008) 100x (PHH 2D sandwich cultures) | Classified as (clinical DILI in man; in vivo) | Clinical DILI class (panel heading of Figure 4) (clinical DILI in man; in vivo) | DILI in vivo (clinical DILI in man; in vivo) | Type of DILI (clinical DILI in man; in vivo) | Xu et al. (2008) (clinical DILI in man; [12]) | also measured |
| --- | --- | --- | --- | --- | --- | --- | --- | --- | --- | --- | --- | --- | --- | --- | --- |
| CCCN(CCC)C(=O)Cc1c(-c2ccc(Cl)cc2)nc2ccc(Cl)cn12 [Alpidem] | 670 | Positive | Extensive | Withdrawn | POS | POS | POS | Hepatocellular injury |  |  |  |  |  |  | Suzuki et al. (2010) (clinical DILI in man; [5]): 3; FDA (Severity) (clinical DILI in man; [6]): most DILI concern; Sakatis et al. (2012) (clinical DILI in man; clinical hepatotoxicity classification, ref Sakatis et al. (2012)): Hepatotoxic |
| CCC1(c2ccc(N)cc2)CCC(=O)NC1=O (centres unmarked) [Aminoglutethimide] | 25400 | Negative | Moderate |  | NEG | NEG | NEG | Non-hepatotoxic | Negative |  |  |  |  |  |  |
| CCN(CC)Cc1cc(Nc2ccnc3cc(Cl)ccc23)ccc1O [Amodiaquine] | 1910 | Positive | Extensive |  |  |  |  |  |  | POS | Severe DILI | POS | Hepatocellular injury |  | hepatotoxicity evaluation in CD-spheroids ([2]; human, 14 days): highly toxic at 5× and 20× of therapeutic serum levels; Clinical DILI classification (Figure 5) (clinical DILI in man; in vivo): DILI positive |
| Clc1ccc2c(c1)C(N1CCNCC1)=Nc1ccccc1O2 [Amoxapine] | 220 | Negative | Extensive | 3 | NEG | NEG | NEG | Non-hepatotoxic | Negative |  |  |  |  | Negative | hepatotoxicity evaluation in CD-spheroids [2]: not found to be toxic at any concentration tested; Clinical DILI classification (Figure 5) (clinical DILI in man; structural analogue pairs, Figure 5, ref Chen et al., 2011, Xu et al., 2008 and others): DILI negative |
| Nc1cc(-c2ccncc2)c[nH]c1=O [Amrinone] | 13800 | Negative | Extensive | 5 | POS | POS | POS | Hepatocellular injury | Negative |  |  |  |  | Positive |  |
| CN(C)C(=O)Oc1cc(OC(=O)N(C)C)cc(C(O)CNC(C)(C)C)c1 (centres unmarked) [Bambuterol] | 10 | Negative | Extensive |  | NEG | NEG | NEG | Non-hepatotoxic | Negative |  |  |  |  |  |  |
| CC(C)COCC(CN(Cc1ccccc1)c1ccccc1)N1CCCC1 (centres unmarked) [Bepridil] | 2000 | Positive | Extensive |  | POS | POS | POS | Hepatocellular injury | Positive |  |  |  |  |  |  |
| CC(C)(Oc1ccc(CCNC(=O)c2ccc(Cl)cc2)cc1)C(=O)O [Bezafibrate] | 16600 | Negative | Extensive |  |  |  |  |  | Negative | NEG | DILI negative | NEG | Non-hepatotoxic |  |  |
| CCCCNc1cc(C(=O)O)cc(S(N)(=O)=O)c1Oc1ccccc1 [Bumetanide] | 80 | Negative | Moderate |  |  |  |  |  |  | POS | High DILI concern | POS |  |  | FDA (0-8) (clinical DILI in man; in vivo): 3; Xu et al. (2008) (clinical DILI in man; in vivo): Positive |
| CN(C)/N=N/c1[nH]cnc1C(N)=O [Dacarbazine] | 16600 | Positive | Extensive |  |  |  |  |  |  | POS | Severe DILI | POS | Hepatocellular injury |  | FDA (0-8) (clinical DILI in man; in vivo): 6; FDA (Severity) (clinical DILI in man; in vivo): most DILI concern; Guo et al. (2005) (clinical DILI in man; in vivo): 3; Sakatis et al. (2012) (clinical DILI in man; in vivo): Hepatotoxic |
| NNc1nnc(NN)c2ccccc12 [Dihydralazine] | 2630 | Positive | Moderate |  | POS | POS | POS | Hepatocellular injury or Cholestatic injury |  |  |  |  |  |  |  |
| CC(C)OC(=O)C(C)(C)Oc1ccc(C(=O)c2ccc(Cl)cc2)cc1 [Fenofibrate] | 12100 | Positive | Extensive |  |  |  |  |  |  | POS | High DILI concern | POS | Hepatocellular injury, Cholestatic injury or Mixed hepatitis |  | FDA (0-8) (clinical DILI in man; in vivo): 3; FDA (Severity) (clinical DILI in man; in vivo): less DILI concern; O'Brien et al. (2003) (clinical DILI in man; in vivo): Moderately; Sakatis et al. (2012) (clinical DILI in man; in vivo): Hepatotoxic; Suzuki et al. (2010) (clinical DILI in man; in vivo): 1; Xu et al. (2008) (clinical DILI in man; in vivo): Positive |
| OC(Cn1cncn1)(Cn1cncn1)c1ccc(F)cc1F [Fluconazole] | 8820 | Negative | Minimal |  |  |  |  |  |  | POS | Severe DILI | POS | Hepatocellular injury |  | FDA (0-8) (clinical DILI in man; in vivo): 8; FDA (Severity) (clinical DILI in man; in vivo): most DILI concern; Guo et al. (2005) (clinical DILI in man; in vivo): 3; Sakatis et al. (2012) (clinical DILI in man; in vivo): Hepatotoxic; Suzuki et al. (2010) (clinical DILI in man; in vivo): 1; Xu et al. (2008) (clinical DILI in man; in vivo): Positive |
| CC(C)NNC(=O)c1ccncc1 [Iproniazid] | 40 | Negative | Extensive | Withdrawn | POS | POS | POS | Hepatocellular injury |  |  |  |  |  |  | hepatotoxicity evaluation in CD-spheroids [2]: predicted to be DILI negative; Suzuki et al. (2010) (clinical DILI in man; [5]): 3; FDA (Severity) (clinical DILI in man; [6]): most DILI concern; Sakatis et al. (2012) (clinical DILI in man; in vivo): Hepatotoxic |
| O=C(c1ccccc1)c1ccc2n1CCC2C(=O)O (centres unmarked) [Ketorolac] | 2390 | Positive | Moderate | 3 | POS | POS | POS |  |  |  |  |  |  | Positive | Guo et al. (2005) (clinical DILI in man; DILI classification score, ref Guo et al. (2005)): 2; Suzuki et al. (2010) (clinical DILI in man; [5]): 1; FDA (Severity) (clinical DILI in man; [6]): less DILI concern; O'Brien et al. (2003) (clinical DILI in man; [13]): Severely |
| COC(=O)C1=C(C)NC(C)=C(C(=O)OCC(C)C)C1c1ccccc1[N+](=O)[O-] (centres unmarked) [Nisoldipine] | 13 | Negative | Extensive |  |  |  |  |  | Negative |  |  |  |  |  |  |
| CN1Cc2c(N)cccc2C(c2ccccc2)C1 (centres unmarked) [Nomifensine] | 5640 | Positive | Moderate | Withdrawn | POS | POS | POS | Cholestatic injury |  |  |  |  |  | Positive | Suzuki et al. (2010) (clinical DILI in man; [5]): 3; FDA (Severity) (clinical DILI in man; [6]): most DILI concern |
| Fc1ccc([C@@H]2CCNC[C@H]2COc2ccc3c(c2)OCO3)cc1 [Paroxetine] | 50 | Negative | Extensive | 8 | NEG | NEG | NEG | Non-hepatotoxic |  |  |  |  |  | Negative | Suzuki et al. (2010) (clinical DILI in man; [5]): 2; FDA (Severity) (clinical DILI in man; [6]): less DILI concern; O'Brien et al. (2003) (clinical DILI in man; [13]): Moderately |
| CNC(=O)Oc1ccc2c(c1)[C@]1(C)CCN(C)[C@@H]1N2C [Physostigmine] |  | Negative | Extensive | 0 | NEG | NEG | NEG | Non-hepatotoxic |  |  |  |  |  | Negative | Cmax ([1]; human, in vivo): 18 nM; O'Brien et al. (2003) (clinical DILI in man; in vivo): Non-toxic |
| CC(C)(C)c1ccc(C(O)CCCN2CCC(C(O)(c3ccccc3)c3ccccc3)CC2)cc1 (centres unmarked) [Terfenadine] | 4.5 |  | Extensive |  |  |  |  |  | Negative | NEG | DILI negative | NEG | Non-hepatotoxic |  |  |
